Data from patent US20230277669A1, “USES OF UROLITHINS” (Amazentis SA, priority 2022, published 2023).

Tested on: human CD8^+ T cells
Test: Human CD3+ T cells from PBMC stimulated with aCD3/aCD28 beads in presence of UA
Type: cell-based
Design: frequency of human TSCM cells (CD45RA+CCR7hiCD62L+CD95+CD8+): dose or concentration left out as unconfirmed
Method: (FIG. 5L) UA induces PGC-1α expression in stimulated CD8+ cells. PGC-1α MFI at 48 h upon stimulation, as assessed by intracellular staining, is shown (n=3). One of two independent experiments are shown. Data are mean ± SD, statistical analysis was performed by two-sided t-test (p**<0.01). (FIG. 5M) Mitochondrial content of TIL CD8+ cells harvested from APTK-carrying mice, fed UA or control diet as depicted in FIG. 1J. Assessed by Mitotracker Red staining. Data are mean ± SD, *p < 0.05 by two-sided t-test. (FIG. 5N) Mitophagy and subsequent PGAM5 release drive PGC-1α upregulation. PGC-1α expression of CD8+ cells derived from Pink1^-/- KO mice upon 48 h stimulation in vitro in the presence of UA or DMSO control (n=4). Data are mean ± SD, statistical analysis was performed by two-sided t-test. Depicts one of two independent experiments. (FIG. 5O) Mitophagy and subsequent PGAM5 release drive PGC-1 α upregulation. PGC-1α expression of CD8+ cells derived from PGAM5^-^/- mice upon 48 h stimulation in vitro in the presence of UA or DMSO control (n=4). Data are mean ± SD, statistical analysis was performed by two-sided t-test. […] Cells were co-treated with DMSO, UA and an inhibitor of PGC-1α (PGC-1αi) as indicated (n=4). One of two independent experiments are shown. Data are mean ± SD, statistical analysis was performed by two-sided t-test (p**<0.01; ***p <0.001; n.s. not significant).(FIG. 5Q) Urolithin A induces TSCM in human CD8+ cells: Schematic overview. PBMC were isolated from healthy donors, prior to T cell purification and in vitro stimulation via aCD3/aCD28 stimulation beads at the presence of UA or DMSO control. (FIG. 5R) Quantification of human TSCM (n=4). Representative data of one out of five donors with the same result are shown. (FIG. 5S) Quantification of TMRM^loCD8+ human cells 48 h after activation in the presence of UA or DMSO control (n=4). (FIG. 5T) TCF1 expression in human CD8 cells as assessed by flow cytometry (n=4). All data are mean ± SD; statistical analysis was performed by two-sided t-test (*p < 0.05; p**<0.01; p****0.0001).
(FIG. 6A) Human PBMC were isolated from healthy donors, T cells were purified and stimulated ex-vivo with αCD3/αCD28 in the presence of UA ([…]) or DMSO control.
(FIG. 6B) Frequency of human TSCM 48 h after stimulation as shown in (A). Data are mean ± SD, n=4, ****p<0.0001 by one-way ANOVA followed by Tukey’s multiple comparison test.
(FIG. 6C) Quantification of human TMRM^loCD8^+ T cells 48 h after stimulation in the presence of UA or DMSO control .Data are mean ± SD, n=4,**p<0.01 by two-sided t test.
(FIG. 6D) TCF1 expression in human CD8+ T cells 48 h after stimulation in the presence of UA or DMSO control. Data are mean ± SD, n=4,*p<0.05by two-sided t test. […]

O=c1oc2cc(O)ccc2c2ccc(O)cc12 [Urolithin A]
CD95hiCD62L+ cells within the CD45RA+CCR7hiCD8+ compartment: dose-dependent increase
TCF1 expression (intracellular staining) (48 h): increased TCF1 expression
frequency of human TSCM cells (CD45RA+CCR7hiCD62L+CD95+CD8+) (48 h, five out of five individual donors): increased the frequency
mitochondrial membrane potential (after 48 hours): decreased mitochondrial membrane potential
